Laboratory results reported in patent US7745495B2, “Pyridine ketones with herbicidal effect” (Syngenta Crop Protection, Inc., priority 2004, dated 2010).

Key:
[1] = test system: Abutilon; assay: Pre-emergence herbicidal action; type: in vivo; conditions: rating 10=total damage, 0=no action
Procedure: (§1) Monocotyledonous and dicotyledonous test plants are sown in standard soil in plastic pots. […] The test plants are then grown in a greenhouse under optimum conditions. After a test duration of 3 weeks, the test is evaluated in accordance with a scale of ten ratings (10=total damage, 0=no action). Ratings of from 10 to 7 (especially from 10 to 8) indicate good to very good herbicidal action.

[2] = test system: Digitaria; assay: Pre-emergence herbicidal action; type: in vivo; conditions: rating 10=total damage, 0=no action
Procedure: as §1

[3] = test system: Amaranthus; assay: Pre-emergence herbicidal action; type: in vivo; conditions: rating 10=total damage, 0=no action
Procedure: as §1

[4] = test system: Echinochloa; assay: Pre-emergence herbicidal action; type: in vivo; conditions: rating 10=total damage, 0=no action
Procedure: as §1

[5] = test system: Scirpus; assay: Pre-emergent herbicidal activity; type: in vivo; conditions: Table B5, rating 10=total damage, 0=no action
Procedure: as §1
In the following Table B5, the pre-emergent herbicidal activity of compound H-9 according to the invention is compared with compound E according to the prior art. Both compounds are structurally identical except for the length of the alkylene linker attached to the pyridine ring.

[6] = test system: Corn; assay: Pre-emergent herbicidal activity on crop plant; type: in vivo; conditions: crop plant, rating 10=total damage, 0=no action; for Pre-emergent Herbicidal Activity: Mais: Table B5; for Pre-emergent Herbicidal Activity: Corn: Table B4
Procedure: as §1
(§2) In the following Table B3, the pre-emergent herbicidal activity of compound H-14 according to the invention is compared with 4 compounds according to the prior art. All compounds are structurally identical except for the nature of the alkylene linker attached to the pyridine ring.

[7] = test system: Soya; assay: Pre-emergent herbicidal activity on crop plant; type: in vivo; conditions: crop plant, rating 10=total damage, 0=no action; for Pre-emergent Herbicidal Activity: Soja: Table B5; for Pre-emergent Herbicidal Activity: Soya: Table B4
Procedure: as §1, §2

[8] = test system: Brachiaria; assay: Pre-emergent herbicidal activity; type: in vivo; conditions: Table B5, rating 10=total damage, 0=no action
Procedure: as §1, §2

[9] = test system: Panicum; assay: Pre-emergence herbicidal action; type: in vivo; conditions: rating 10=total damage, 0=no action; for Pre-emergent Herbicidal Activity: Panicum: Table B4
Procedure: as §1

[10] = test system: Xanthium; assay: Pre-emergent herbicidal activity; type: in vivo; conditions: Table B4, rating 10=total damage, 0=no action
Procedure: as §1
In the following Table B4, the pre-emergent herbicidal activity of compound H-3 according to the invention is compared with compound D according to the prior art. Both compounds are structurally identical except for the length of the alkylene linker attached to the pyridine ring.

[11] = test system: Chenopodium; assay: Pre-emergence herbicidal action; type: in vivo; conditions: 250 g/ha; after 3 weeks; rating 10=total damage, 0=no action
Procedure: (§3) Monocotyledonous and dicotyledonous test plants are sown in standard soil in plastic pots. Immediately after sowing, the test compounds, in the form of an aqueous suspension (prepared from a 25% wettable powder (Example F3, b) according to WO 97/34485) or in the form of an emulsion (prepared from a 25% emulsifiable concentrate (Example F1, c)), are applied by spraying a concentration corresponding to 125 g or 250 g of active ingredient/ha (500 liter of water/ha). The test plants are then grown in a greenhouse under optimum conditions. After a test duration of 3 weeks, the test is evaluated in accordance with a scale of ten ratings (10=total damage, 0=no action). Ratings of from 10 to 7 (especially from 10 to 8) indicate good to very good herbicidal action.

[12] = test system: Stellaria; assay: Pre-emergence herbicidal action; type: in vivo; conditions: 250 g/ha; after 3 weeks; rating 10=total damage, 0=no action
Procedure: as §3

[13] = test system: Abutilon; assay: Post-emergence herbicidal action; type: in vivo; conditions: 250 g/ha; 4- to 6-leaf stage; after about 18 days; rating 10=total damage, 0=no action
Procedure: (§4) In a greenhouse, monocotyledonous and dicotyledonous test plants are grown in standard soil in plastic pots and at the 4- to 6-leaf stage are sprayed with an aqueous suspension of the test compounds of formula I prepared from a 25% wettable powder (Example F3, b) according to WO 97/34485) or with an emulsion of the test compounds of formula I prepared from a 25% emulsifiable concentrate (Example F1, c) according to WO 97/34485), in a concentration corresponding to 125 g or 250 g of active ingredient/ha (500 liter of water/ha). The test plants are then grown on in a greenhouse under optimum conditions. After a test duration of about 18 days, the test is evaluated in accordance with a scale of ten ratings (10=total damage, 0=no action). Ratings of from 10 to 7 (especially from 10 to 8) indicate good to very good herbicidal action.

[14] = test system: Digitaria; assay: Post-emergence herbicidal action; type: in vivo; conditions: 250 g/ha; 4- to 6-leaf stage; after about 18 days; rating 10=total damage, 0=no action
Procedure: as §4

[15] = test system: Chenopodium; assay: Post-emergence herbicidal action; type: in vivo; conditions: 250 g/ha; 4- to 6-leaf stage; after about 18 days; rating 10=total damage, 0=no action
Procedure: as §4

[16] = test system: Ipomea; assay: Post-emergence herbicidal action; type: in vivo; conditions: 250 g/ha; 4- to 6-leaf stage; after about 18 days; rating 10=total damage, 0=no action
Procedure: as §4

[17] = test system: Panicum; assay: Post-emergence herbicidal action; type: in vivo; conditions: 250 g/ha; 4- to 6-leaf stage; after about 18 days; rating 10=total damage, 0=no action
Procedure: as §4

[18] = test system: Setaria; assay: Post-emergence herbicidal action; type: in vivo; conditions: 250 g/ha; 4- to 6-leaf stage; after about 18 days; rating 10=total damage, 0=no action
Procedure: as §4

[19] = test system: Stellaria; assay: Post-emergence herbicidal action; type: in vivo; conditions: 250 g/ha; 4- to 6-leaf stage; after about 18 days; rating 10=total damage, 0=no action
Procedure: as §4

[20] = test system: Sinapis; assay: Post-emergence herbicidal action; type: in vivo; conditions: 250 g/ha; 4- to 6-leaf stage; after about 18 days; rating 10=total damage, 0=no action
Procedure: as §4

| Compound | Pre-emergent Herbicidal Activity: Abutilon ([1]; Table B4, 30 g/ha) | Pre-emergent Herbicidal Activity: Abutilon ([1]; Table B4, 60 g/ha) | Pre-emergent Herbicidal Activity: Digitaria ([2]; Table B4, 30 g/ha) | Pre-emergent Herbicidal Activity: Digitaria ([2]; Table B4, 60 g/ha) | Pre-emergent Herbicidal Activity: Amaranthus ([3]; Table B4, 30 g/ha) | Pre-emergent Herbicidal Activity: Amaranthus ([3]; Table B4, 60 g/ha) | Pre-emergent Herbicidal Activity: Panicum ([9]; 30 g/ha) | Pre-emergent Herbicidal Activity: Panicum ([9]; 60 g/ha) | Pre-emergent Herbicidal Activity: Echinochloa ([4]; Table B4, 30 g/ha) | Pre-emergent Herbicidal Activity: Echinochloa ([4]; Table B4, 60 g/ha) | Pre-emergent Herbicidal Activity: Xanthium ([10]; 30 g/ha) | Pre-emergent Herbicidal Activity: Xanthium ([10]; 60 g/ha) | Pre-emergent Herbicidal Activity: Corn ([6]; 30 g/ha) | Pre-emergent Herbicidal Activity: Corn ([6]; 60 g/ha) | Pre-emergent Herbicidal Activity: Soya ([7]; 30 g/ha) | Pre-emergent Herbicidal Activity: Soya ([7]; 60 g/ha) | other results |
| --- | --- | --- | --- | --- | --- | --- | --- | --- | --- | --- | --- | --- | --- | --- | --- | --- | --- |
| COCc1nc(C(F)(F)Cl)ccc1C(=O)C1C(=O)C2CCC(C2)C1=O (stereo not shown) [E, reference compound] |  |  |  |  |  |  |  |  |  |  |  |  |  |  |  |  | Pre-emergent Herbicidal Activity: Abutilon ([1]; Table B5, 30 g/ha): 0; Pre-emergent Herbicidal Activity: Abutilon ([1]; Table B5, 60 g/ha): 0; Pre-emergent Herbicidal Activity: Digitaria ([2]; Table B5, 30 g/ha): 6; Pre-emergent Herbicidal Activity: Digitaria ([2]; Table B5, 60 g/ha): 6; Pre-emergent Herbicidal Activity: Amaranthus ([3]; Table B5, 30 g/ha): 5; Pre-emergent Herbicidal Activity: Amaranthus ([3]; Table B5, 60 g/ha): 7; Pre-emergent Herbicidal Activity: Echinochloa ([4]; Table B5, 30 g/ha): 8; Pre-emergent Herbicidal Activity: Echinochloa ([4]; Table B5, 60 g/ha): 9; Pre-emergent Herbicidal Activity: Scirpus ([5]; 30 g/ha): 9; Pre-emergent Herbicidal Activity: Scirpus ([5]; 60 g/ha): 9; Pre-emergent Herbicidal Activity: Mais ([6]; 30 g/ha): 0; Pre-emergent Herbicidal Activity: Mais ([6]; 60 g/ha): 0; Pre-emergent Herbicidal Activity: Soja ([7]; 30 g/ha): 2; Pre-emergent Herbicidal Activity: Soja ([7]; 60 g/ha): 4; Pre-emergent Herbicidal Activity: Brachiaria ([8]; 30 g/ha): 0; Pre-emergent Herbicidal Activity: Brachiaria ([8]; 60 g/ha): 0 |
| COCc1nc(C(F)F)ccc1C(=O)C1C(=O)C2CCC(C2)C1=O (stereo not shown) [D, reference compound] | 6 | 9 | 7 | 9 | 7 | 7 | 8 | 9 | 5 | 7 | 0 | 0 | 0 | 0 | 2 | 3 |  |
| COCCCc1nc(C(F)F)ccc1C(=O)C1C(=O)C2CCC(C2)C1=O (stereo not shown) [Compound H-3, 3-[6-Difluoromethyl-2-(3-methoxy-propyl)-pyridine-3-carbonyl]-bicyclo[3.2.1]octane-2,4-dione] | 9 | 10 | 9 | 9 | 9 | 10 | 10 | 10 | 10 | 10 | 7 | 7 | 0 | 0 | 0 | 0 | Pre-emergence herbicidal action: Chenopodium [11]: 10; Pre-emergence herbicidal action: Stellaria [12]: 8; Pre-emergence herbicidal action: Abutilon ([1]; 250 g/ha, after 3 weeks): 10; Pre-emergence herbicidal action: Digitaria ([2]; 250 g/ha, after 3 weeks): 10; Pre-emergence herbicidal action: Amaranthus ([3]; 250 g/ha, after 3 weeks): 10; Pre-emergence herbicidal action: Panicum ([9]; 250 g/ha, after 3 weeks): 10; Pre-emergence herbicidal action: Echinochloa ([4]; 250 g/ha, after 3 weeks): 10; Post-emergence herbicidal action: Abutilon [13]: 9; Post-emergence herbicidal action: Digitaria [14]: 9; Post-emergence herbicidal action: Chenopodium [15]: 10; Post-emergence herbicidal action: Ipomea [16]: 8; Post-emergence herbicidal action: Panicum [17]: 10; Post-emergence herbicidal action: Setaria [18]: 9; Post-emergence herbicidal action: Stellaria [19]: 9; Post-emergence herbicidal action: Sinapis [20]: 9; melting point: 45 to 46 °C |
